# According to patent publication US20240197682A1, “METHOD FOR TREATING NEUROLOGICAL DISEASES USING SUPRAMOLECULE POLYMER THERAPEUTICS” (The Regents of the University of California, priority 2022, published 2024):
# Like-named read-outs stand apart in the source and are kept apart here.
# Experiment: Parallel Artificial Membrane Permeability Assay (PAMPA)
# Type: in vitro ADME
# Settings: for PAMPA: P_app: 200 uM test compound, 4 hr; for Papp at 4 hr, 200 uM: PAMPA, read-out: PAMPA: P_app
# Procedure: 5 uL of 1% lecithin (VWR 0579) dissolved in n-dodecane (Sigma Aldrich D221104) was applied to each well of a MultiScreen IP PAMPA filter plate (Millipore MAIPSWU10) and allowed to equilibrate for 5 minutes. 300 uL of PBS was added to the acceptor plate and 150 uL of 200 uM test compound dissolved in PBS and 30% ethanol was added to the donor wells before incubating the donor plate in the acceptor plate for 4 hr at 500 rpm. 100 uL was sampled from the donor and acceptor wells and the concentrations were measured by liquid chromatography-mass spectrometry (SCIEX 4500) or UV-VIS plate reader (BMG).
Compound,PAMPA: P_app (pH 5.0) [×10e−6 cm/sec],PAMPA: P_app (pH 7.4) [×10e−6 cm/sec],"Papp at 4 hr, 200 uM (pH 5.0, 200 uM test compound) [×10⁻⁶ cm/s]","Papp at 4 hr, 200 uM (pH 7.4, 200 uM test compound) [×10⁻⁶ cm/s]"
CNc1nc(=O)n(-c2nc(-c3cccc(Cl)c3)oc2-c2ccc(Cl)c(F)c2)cc1F [Compound 1],>50.0,>50.0,–,–
"CNC(=O)c1cc2c(NC(=O)C3CC3)nn(-c3ccccc3)c2s1 [Compound 3, 3-(cyclopropanecarboxamido)-N-methyl-1-phenyl-1H-thieno[2,3-c]pyrazole-5-carboxamide]",–,>50.0,> 50,–
"CNC(=O)c1ncc2c(-c3ccnc(C(C)(F)F)n3)nn(-c3ccc(Cl)cc3)c2n1 [Compound 22, 1-(4-chlorophenyl)-3-(2-(1,1-difluoroethyl)pyrimidin-4-yl)-N-methyl-1H-pyrazolo[3,4-d]pyrimidine-6-carboxamide]",–,>50.0,> 50,–
"CNC(=O)c1cc2c(C3=CCCC3)nn(-c3ccccc3)c2s1 [Compound 31, 3-(cyclopent-1-en-1-yl)-N-methyl-1-phenyl-1H-thieno[2,3-c]pyrazole-5-carboxamide]",–,–,14.9,16.7
"COC(=O)c1cc2c(-c3ccccc3)nn(-c3ccccc3)c2[nH]1 [Compound 34, methyl 1,3-diphenyl-1,6-dihydropyrrolo[2,3-c]pyrazole-5-carboxylate]",–,–,24.4,14.3
"CNC(=O)c1ncc2c(-c3ccnc(C(F)(F)F)n3)nn(-c3ccc(Cl)cc3)c2n1 [Compound 37, 1-(4-chlorophenyl)-N-methyl-3-(2-(trifluoromethyl)pyrimidin-4-yl)-1H-pyrazolo[3,4-d]pyrimidine-6-carboxamide]",–,>50.0,> 50,–
"CNC(=O)c1cc2c(-c3ccccc3)nn(-c3ccccc3)c2o1 [Compound 38, N-methyl-1,3-diphenyl-1H-furo[2,3-c]pyrazole-5-carboxamide]",–,–,46.1,> 50
"CC(=O)Nc1ncc2c(-c3ccccc3)nn(Cc3cccnc3)c2n1 [Compound 42, N-(3-phenyl-1-(pyridin-3-ylmethyl)-1H-pyrazolo[3,4-d]pyrimidin-6-yl)acetamide]",–,–,46.7,37
"Cc1cn(-c2nc(-c3ccccc3)oc2-c2ccccc2)c(=O)nc1OCCO [Compound 77, 1-(2,5-diphenyl-1,3-oxazol-4-yl)-4-(2-hydroxyethoxy)-5-methyl-1,2-dihydropyrimidin-2-one]",–,>50.0,> 50,–
"CNc1nc(=O)n(-c2nc(-c3cccc(C)c3)oc2-c2ccc(Cl)c(F)c2)cc1F [Compound 83, 1-(5-(4-chloro-3-fluorophenyl)-2-(m-tolyl)oxazol-4-yl)-5-fluoro-4-(methylamino)pyrimidin-2(1H)-one]",–,–,40.3,> 50
"CC1CCc2cn(-c3nc(-c4ccccc4)oc3-c3ccc(F)cc3)c(=O)nc2O1 (centres unmarked) [Compound 92, 3-(5-(4-fluorophenyl)-2-phenyloxazol-4-yl)-7-methyl-3,5,6,7-tetrahydro-2H-pyrano[2,3-d]pyrimidin-2-one]",–,–,–,1.46
"COc1nccc2cc(-c3nc(-n4ccc5cccnc5c4=O)c(-c4ccc(C(F)(F)F)cc4)o3)ccc12 [Compound 124, 7-(2-(1-methoxyisoquinolin-6-yl)-5-(4-(trifluoromethyl)phenyl)oxazol-4-yl)-1,7-naphthyridin-8(7H)-one]",–,–,–,5.82
"O=c1nc2c(ccn2C2CC2)cn1-c1nc(-c2cnc(C3CC3)nc2)oc1-c1ccc(Cl)c(F)c1 [Compound 186, 3-[5-(4-chloro-3-fluorophenyl)-2-(2-cyclopropylpyrimidin-5-yl)-1,3-oxazol-4-yl]-7-cyclopropyl-2H,3H,7H-pyrrolo[2,3-d]pyrimidin-2-one]",–,–,–,6.27
"O=c1nc2c(ccn2C2CC2)cn1-c1nc(-c2ccc(F)cc2)oc1-c1ccccc1 [Compound 213, 7-cyclopropyl-3-(2-(4-fluorophenyl)-5-phenyloxazol-4-yl)-3,7-dihydro-2H-pyrrolo[2,3-d]pyrimidin-2-one]",–,–,36,48
"O=c1nc2c(ccn2C2CC2)cn1-c1nc(-c2ccnc(C3CC3)n2)oc1-c1ccc(F)cc1 [Compound 216, 7-cyclopropyl-3-[2-(2-cyclopropylpyrimidin-4-yl)-5-(4-fluorophenyl)-1,3-oxazol-4-yl]-2H,3H,7H-pyrrolo[2,3-d]pyrimidin-2-one]",–,–,–,1.63
"O=c1nc2c(ccn2C(F)(F)F)cn1-c1nc(N2CCCC2)oc1-c1ccc(F)cc1 [Compound 238, 3-[5-(4-fluorophenyl)-2-(pyrrolidin-1-yl)-1,3-oxazol-4-yl]-7-(trifluoromethyl)-2H,3H,7H-pyrrolo[2,3-d]pyrimidin-2-one]",–,–,–,2.28

Compound,PAMPA: P_app (pH 5.0) [×10e−6 cm/sec],PAMPA: P_app (pH 7.4) [×10e−6 cm/sec],"Papp at 4 hr, 200 uM (pH 5.0, 200 uM test compound) [×10⁻⁶ cm/s]","Papp at 4 hr, 200 uM (pH 7.4, 200 uM test compound) [×10⁻⁶ cm/s]"
O=c1nc2c(ccn2C(F)(F)F)cn1-c1nc(N2CC(F)C2)oc1-c1ccc(F)cc1 [Compound 239],–,0.664,–,–
CNC(=O)c1ncc2c(-c3ccccc3)nn(Cc3cccc(F)c3)c2n1 [Compound 249],47.1,>50,–,–
CNC(=O)c1ncc2c(-c3ccc(F)cc3)nn(Cc3ccccc3)c2n1 [Compound 250],>50,>50,–,–
CNC(=O)c1ncc2c(-c3cc(F)cc(F)c3)nn(Cc3ccccc3)c2n1 [Compound 252],>50,>50,–,–
"CNC(=O)c1cnc2c(-c3cc(F)cc(F)c3)nn(Cc3ccccc3)c2n1 [Compound 262, 1-benzyl-3-(3,5-difluorophenyl)-N-methyl-1H-pyrazolo[3,4-b]pyrazine-6-carboxamide]",–,–,1.2,2
"CC(=O)Nc1ncc2c(-c3ccc(F)cc3)nn(Cc3ccccc3)c2n1 [Compound 263, N-(1-benzyl-3-(4-fluorophenyl)-1H-pyrazolo[3,4-d]pyrimidin-6-yl)acetamide]",–,–,17.9,20.7
CC(=O)Nc1ncc2c(-c3ccccc3)nn(Cc3ccccc3)c2n1 [Compound 264],27.1,26.4,–,–
"CC(=O)Nc1ncc2c(-c3ccccc3)nn(-c3ccccc3)c2n1 [Compound 272, N-(1,3-diphenyl-1H-pyrazolo[3,4-d]pyrimidin-6-yl)acetamide]",–,–,8.8,8.9
CCC(=O)Nc1ncc2c(-c3ccccc3)nn(-c3ccccc3)c2n1 [Compound 273],2.8,3.6,–,–
O=C(Nc1ncc2c(-c3ccccc3)nn(-c3ccccc3)c2n1)C1CC1 [Compound 275],0.8,1.3,–,–
"CC(=O)Nc1ncc2c(-c3ccccc3)nn(-c3cccnc3)c2n1 [Compound 276, N-(3-phenyl-1-(pyridin-3-yl)-1H-pyrazolo[3,4-d]pyrimidin-6-yl)acetamide]",–,>50,> 50,–
CCn1nc(-c2ccccc2)c2cnc(NC(C)=O)nc21 [Compound 277],>50,>50,–,–
CC(=O)Nc1ncc2c(-c3ccccc3)nn(Cc3ccccn3)c2n1 [Compound 278],>50,>50,–,–
"c1ccc(Cn2nc(-c3ccccc3)c3cnc(-c4cnn[nH]4)nc32)cc1 [Compound 284, 1-benzyl-3-phenyl-6-(1H-1,2,3-triazol-5-yl)-1H-pyrazolo[3,4-d]pyrimidine]",–,>50,> 50,–
CNC(=O)c1cc2c(-c3ccccc3)nn(-c3ccc(F)cc3)c2o1 [Compound 292],7.9,13.5,–,–
